pIC50: −log10 of the molar value.
What follows are compounds tested against T1, IL-17A/A (Homo sapiens, UniProt Q16552) (assay: IL-17A/A HEK-Blue Cell Assay). Conditions: IL-17A/A inhibition, HEK-Blue IL-17A reporter cell line, SEAP readout at A630, incubated for 20 hours.
T1 construct: purchased Genscript Z03228
T1 sequence (Q16552 24-155): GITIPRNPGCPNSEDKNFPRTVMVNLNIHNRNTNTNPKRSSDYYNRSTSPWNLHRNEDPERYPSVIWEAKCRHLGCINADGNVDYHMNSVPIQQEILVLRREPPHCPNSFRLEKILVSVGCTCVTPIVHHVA
Format: cell-based
Protocol: Example 3: IL-17A/A HEK-Blue Cell Assay
The HEK-Blue IL-17A reporter cell line (Fisher #NC1408637) was used for cell-based IL-17A/A inhibition assays. Cells were grown and prepared for assays according to the manufacturer's instructions. This cell line consists of HEK 293 cells that were designed to expressed IL-17RA, IL-17RC, and the ActI adapter molecule, the combination of which, when stimulated by IL-17A/A activates a NFκB promoter and drives expression of a recombinant Secreted Alkaline Phosphatase (SEAP) gene protein. Media from the cells is then added to a development reagent (Quanti-Blue Substrate, Fisher #NC9711613), and read at A630.
Compounds were titrated in DMSO, with a top final compound concentration of 10 μM, 1 uM, or 0.3 μM, and added to the cells immediately before adding IL-17A/A (Genscript #Z03228). The cells, compound, and IL-17A/A were then incubated for 20 hours before media was removed for SEAP analysis. The resulting inhibition curve was then analyzed using Graphpad Prism 7.0, and IC50 values were determined using a 4-parameter nonlinear fit. DMSO was added to a universal final concentration of 0.1% to optimize background.

CCn1nccc1C(=O)N[C@H](c1nc2c(F)c(CC3CCNC3=O)ccc2[nH]1)C(C1CC1)C1CC1 (mixture of isomers) [Compound 2, N-((1S)-2,2-dicyclopropyl-1-(7-fluoro-6-((2-oxopyrrolidin-3-yl)methyl)-1H-benzo[d]imidazol-2-yl)ethyl)-1-ethyl-1H-pyrazole-5-carboxamide] and CCn1nccc1C(=O)N[C@H](c1nc2c(F)c(C[C@H]3CCNC3=O)ccc2[nH]1)C(C1CC1)C1CC1 (single isomer, unassigned) [Compound 1] fall in the same range of pIC50: 6.00 to 7.00 for the first, 6.00 to 7.00 for the second.

CCn1nccc1C(=O)NC(c1nc2nc(CC3CCNC3=O)ccc2[nH]1)C1CCC(F)(F)CC1 (mixture of isomers) [Compound 9] and CCn1nccc1C(=O)N[C@H](c1nc2nc(C[C@H]3CCNC3=O)ccc2[nH]1)C1CCC(F)(F)CC1 [Compound 10] cannot be ordered by pIC50: under 6.00 for the first, under 6.00 for the second.

Compared with CCn1nccc1C(=O)N[C@H](c1nc2cc(C[C@H]3C[C@@H](C(F)(F)F)NC3=O)ccc2[nH]1)C(C1CC1)C1CC1 (single isomer, unassigned) [Compound 3], CCn1nccc1C(=O)N[C@H](c1nc2cc(C[C@@H]3C[C@@H](C(F)(F)F)NC3=O)ccc2[nH]1)C(C1CC1)C1CC1 (single isomer, unassigned) [Compound 4] is lower in pIC50: over 7.00 for the first, 6.00 to 7.00 for the second.

Compared with CCn1nccc1C(=O)N[C@H](c1nc2cc(C[C@@H]3C[C@H](C(F)(F)F)NC3=O)ccc2[nH]1)C(C1CC1)C1CC1 (single isomer, unassigned) [Compound 5], CCn1nccc1C(=O)N[C@H](c1nc2cc(CC3CCC(C(F)(F)F)NC3=O)ccc2[nH]1)C(C1CC1)C1CC1 (stereo partly shown) [Compound 43] is higher in pIC50: under 6.00 for the first, 6.00 to 7.00 for the second. The second is the more potent here.

CCn1nccc1C(=O)N[C@H](c1nc2c(F)c(CC3CCC(C(F)(F)F)NC3=O)ccc2[nH]1)C(C1CC1)C1CC1 (single isomer, unassigned) [Compound 47] and CCn1nccc1C(=O)N[C@H](c1nc2c(F)c(C[C@@H]3C[C@@H](C(F)(F)F)NC3=O)ccc2[nH]1)C(C1CC1)C1CC1 [Compound 37] fall in the same range of pIC50: 6.00 to 7.00 for the first, 6.00 to 7.00 for the second.

Compared with CCn1nccc1C(=O)N[C@H](c1nc2c(F)c(CC3CCC(C(F)(F)F)NC3=O)ccc2[nH]1)C(C1CC1)C1CC1 (single isomer, unassigned) [Compound 48], CCn1nccc1C(=O)N[C@H](c1nc2c(F)c(C[C@H]3C[C@H](C(F)(F)F)NC3=O)ccc2[nH]1)C(C1CC1)C1CC1 [Compound 38] is higher in pIC50: under 6.00 for the first, 6.00 to 7.00 for the second.

CCn1nccc1C(=O)N[C@H](c1nc2c(F)c(CC3CCC(C(F)(F)F)NC3=O)ccc2[nH]1)C(C1CC1)C1CC1 (single isomer, unassigned) [Compound 49] and CCn1nccc1C(=O)N[C@H](c1nc2c(F)c(CC3CC(C(F)(F)F)NC3=O)ccc2[nH]1)C(C1CC1)C1CC1 (stereo partly shown) [Compound 39] cannot be ordered by pIC50: under 6.00 for the first, under 6.00 for the second.

CCn1nccc1C(=O)N[C@H](c1nc2c(F)c(CC3CCC(C(F)(F)F)NC3=O)ccc2[nH]1)C(C1CC1)C1CC1 (single isomer, unassigned) [Compound 50] and CCn1nccc1C(=O)N[C@H](c1nc2c(F)c(C[C@H]3C[C@@H](C(F)(F)F)NC3=O)ccc2[nH]1)C(C1CC1)C1CC1 [Compound 40] cannot be ordered by pIC50: over 7.00 for the first, over 7.00 for the second.

First: CCn1nccc1C(=O)N[C@H](c1nc2c(F)c(CC3CCC(C(F)(F)F)NC3=O)ccc2[nH]1)C(C1CC1)C1CC1 (single isomer, unassigned) [Compound 51]
Second: CCn1nccc1C(=O)N[C@H](c1nc2cc(CC3CCC(C(F)(F)F)NC3=O)ccc2[nH]1)C(C1CC1)C1CC1 (stereo partly shown) [Compound 44]
The pIC50 of the first is higher: 6.00 to 7.00 for the first, under 6.00 for the second.

First: CCn1nccc1C(=O)N[C@H](c1nc2cc(C[C@H]3CCNC3=O)ccc2[nH]1)C1CCCCCC1 [Compound 6]
Second: CCn1nccc1C(=O)N[C@H](c1nc2cc(C[C@H]3CCNC3=O)ccc2[nH]1)C1CCC(F)(F)CC1 [Compound 7]
The pIC50 of the first is higher: over 7.00 for the first, 6.00 to 7.00 for the second.

First: CCn1nccc1C(=O)N[C@H](c1nc2cc(C[C@@H]3CCNC3=O)ccc2[nH]1)C1CCC(F)(F)CC1 [Compound 8]
Second: CCn1nccc1C(=O)N[C@H](c1nc2cc(C[C@H]3CCNC3=O)cc(F)c2[nH]1)C1CCC(F)(F)CC1 [Compound 13]
The pIC50 of the first is lower: under 6.00 for the first, 6.00 to 7.00 for the second. The second is the more potent here.

Compared with CCn1nccc1C(=O)N[C@H](c1nc2c(F)c(CC3CCNC3=O)ccc2[nH]1)C1CCC(F)(F)CC1 (stereo partly shown) [Compound 11], CCn1nccc1C(=O)N[C@H](c1nc2c(F)c(C[C@@H]3CCNC3=O)ccc2[nH]1)C1CCC(F)(F)CC1 [Compound 12] is lower in pIC50: 6.00 to 7.00 for the first, under 6.00 for the second.

CCn1nccc1C(=O)N[C@H](c1nc2cc(C[C@@H]3CCNC3=O)cc(F)c2[nH]1)C1CCC(F)(F)CC1 [Compound 14] and CCn1nccc1C(=O)N[C@H](c1nc2cc(C[C@@H]3CCNC3=O)cc(F)c2[nH]1)C(C1CC1)C1CC1 [Compound 31] cannot be ordered by pIC50: under 6.00 for the first, under 6.00 for the second.

CCn1nccc1C(=O)N[C@H](c1nc2cc(CC3CCNC3=O)ccc2[nH]1)C(C1CC1)C1CC1 (stereo partly shown) [Compound 15] and CCn1nccc1C(=O)N[C@H](c1nc2cc(C[C@H]3CCNC3=O)ccc2[nH]1)C(C1CC1)C1CC1 [Compound 16] fall in the same range of pIC50: 6.00 to 7.00 for the first, 6.00 to 7.00 for the second.

Compared with CCn1nccc1C(=O)N[C@H](c1nc2ccc(CC3CCCNC3=O)cc2[nH]1)C(C1CC1)C1CC1 (stereo partly shown) [Compound 17], CCn1nccc1C(=O)N[C@H](c1nc2ccc(C[C@@H]3CCCNC3=O)cc2[nH]1)C(C1CC1)C1CC1 [Compound 18] is lower in pIC50: 6.00 to 7.00 for the first, under 6.00 for the second. The first is the more potent here.

First: CCn1nccc1C(=O)N[C@H](c1nc2ccc(CC3(C)CCNC3=O)cc2[nH]1)C(C1CC1)C1CC1 (stereo partly shown) [Compound 19]
Second: CCn1nccc1C(=O)N[C@H](c1nc2ccc(C[C@H]3CCCNC3=O)cc2[nH]1)C(C1CC1)C1CC1 [Compound 35]
The pIC50 of the first is lower: under 6.00 for the first, 6.00 to 7.00 for the second.

Compared with CCn1nccc1C(=O)N[C@H](c1nc2ccc(CC3(C)CCNC3=O)cc2[nH]1)C(C1CC1)C1CC1 (stereo partly shown) [Compound 20], CCn1nccc1C(=O)N[C@H](c1nc2cc(C[C@@H]3CCNC3=O)ccc2[nH]1)C(C1CC1)C1CC1 [Compound 27] is lower in pIC50: 6.00 to 7.00 for the first, under 6.00 for the second. The first is the more potent here.

First: CCn1nccc1C(=O)N[C@H](c1nc2cc(C(C)C3CCNC3=O)ccc2[nH]1)C(C1CC1)C1CC1 (stereo partly shown) [Compound 21]
Second: CCn1nccc1C(=O)N[C@H](c1nc2cc(C)c(CC3CCNC3=O)cc2[nH]1)C(C1CC1)C1CC1 (stereo partly shown) [Compound 26]
The pIC50 of the first is higher: 6.00 to 7.00 for the first, under 6.00 for the second. The first is the more potent here.

First: CCn1nccc1C(=O)N[C@H](c1nc2cc(C(C)C3CCNC3=O)ccc2[nH]1)C(C1CC1)C1CC1 (stereo partly shown) [Compound 22]
Second: CCn1nccc1C(=O)N[C@H](c1nc2cc(CC3CCC(C(F)(F)F)NC3=O)ccc2[nH]1)C(C1CC1)C1CC1 (stereo partly shown) [Compound 45]
The pIC50 of the first is lower: under 6.00 for the first, 6.00 to 7.00 for the second. The second is the more potent here.

CCn1nccc1C(=O)N[C@H](c1nc2cc(C(C)C3CCNC3=O)ccc2[nH]1)C(C1CC1)C1CC1 (stereo partly shown) [Compound 23] and CCn1nccc1C(=O)N[C@H](c1nc2cc(CC3CCC(C(F)(F)F)NC3=O)ccc2[nH]1)C(C1CC1)C1CC1 (stereo partly shown) [Compound 46] cannot be ordered by pIC50: under 6.00 for the first, under 6.00 for the second.

First: CCn1nccc1C(=O)N[C@H](c1nc2cc(C(C)C3CCNC3=O)ccc2[nH]1)C(C1CC1)C1CC1 (stereo partly shown) [Compound 24]
Second: CCn1nccc1C(=O)N[C@H](c1nc2cc(C[C@H]3CCNC3=O)cc(F)c2[nH]1)C(C1CC1)C1CC1 [Compound 32]
The pIC50 of the first is lower: under 6.00 for the first, 6.00 to 7.00 for the second.

First: CCc1nonc1C(=O)N[C@H](c1nc2ccc(C[C@H]3CCNC3=O)cc2[nH]1)C1CCC(F)(F)CC1 [Compound 25]
Second: CCn1nccc1C(=O)N[C@@H](c1nc2nc(C[C@H]3CCNC3=O)ccc2[nH]1)C1CCC(F)(F)CC1 [Compound 28]
The pIC50 of the first is higher: 6.00 to 7.00 for the first, under 6.00 for the second.

CCn1nccc1C(=O)N[C@@H](c1nc2nc(CC3CCNC3=O)ccc2[nH]1)C1CCC(F)(F)CC1 (stereo partly shown) [Compound 29] and CCn1nccc1C(=O)N[C@H](c1nc2nc(CC3CCNC3=O)ccc2[nH]1)C1CCC(F)(F)CC1 (stereo partly shown) [Compound 30] cannot be ordered by pIC50: under 6.00 for the first, under 6.00 for the second.

Compared with CCn1nccc1C(=O)N[C@H](c1nc2cc(CC3CC(C(F)(F)F)NC3=O)cc(F)c2[nH]1)C(C1CC1)C1CC1 (stereo partly shown) [Compound 33], CCn1nccc1C(=O)N[C@H](c1nc2cc(C[C@H]3C[C@@H](C(F)(F)F)NC3=O)cc(F)c2[nH]1)C(C1CC1)C1CC1 [Compound 34] is higher in pIC50: 6.00 to 7.00 for the first, over 7.00 for the second.

Compared with CCn1nccc1C(=O)N[C@H](c1nc2ccc(C[C@@H]3CCCNC3=O)c(F)c2[nH]1)C(C1CC1)C1CC1 [Compound 36], CCn1nccc1C(=O)N[C@H](c1nc2cc(CC3CCC(C(F)(F)F)NC3=O)cc(F)c2[nH]1)C(C1CC1)C1CC1 (stereo partly shown) [Compound 52] is higher in pIC50: under 6.00 for the first, 6.00 to 7.00 for the second. The second is the more potent here.

CCn1nccc1C(=O)N[C@H](c1nc2cc(CC3CC(C(F)(F)F)NC3=O)cc(F)c2[nH]1)C(C1CC1)C1CC1 (stereo partly shown) [Compound 41] and CCn1nccc1C(=O)N[C@H](c1nc2cc(CC3CCC(C(F)(F)F)NC3=O)cc(F)c2[nH]1)C(C1CC1)C1CC1 (stereo partly shown) [Compound 53] fall in the same range of pIC50: 6.00 to 7.00 for the first, 6.00 to 7.00 for the second.

CCn1nccc1C(=O)N[C@H](c1nc2cc(CC3CC(C(F)(F)F)NC3=O)cc(F)c2[nH]1)C(C1CC1)C1CC1 (stereo partly shown) [Compound 42] and CCn1nccc1C(=O)N[C@H](c1nc2cc(CC3CCC(C(F)(F)F)NC3=O)cc(F)c2[nH]1)C(C1CC1)C1CC1 (stereo partly shown) [Compound 54] cannot be ordered by pIC50: under 6.00 for the first, under 6.00 for the second.

Work on CCn1nccc1C(=O)N[C@H](c1nc2cc(CC3CCC(C(F)(F)F)NC3=O)cc(F)c2[nH]1)C(C1CC1)C1CC1 (stereo partly shown) [Compound 55] yielded a pIC50 of under 6.00.
